Molecules are shown by their SMILES. pIC50: −log10 of the molar value. Some results are limits rather than exact numbers.

The test deals with ROCK1;ROCK2 (human) (UniProt O75116). The experiment in a line: Inhibition of ROCK1/ROCK2 Kinase Activity.
Sequence of ROCK1;ROCK2 (human) (O75116 whole entry, looked up): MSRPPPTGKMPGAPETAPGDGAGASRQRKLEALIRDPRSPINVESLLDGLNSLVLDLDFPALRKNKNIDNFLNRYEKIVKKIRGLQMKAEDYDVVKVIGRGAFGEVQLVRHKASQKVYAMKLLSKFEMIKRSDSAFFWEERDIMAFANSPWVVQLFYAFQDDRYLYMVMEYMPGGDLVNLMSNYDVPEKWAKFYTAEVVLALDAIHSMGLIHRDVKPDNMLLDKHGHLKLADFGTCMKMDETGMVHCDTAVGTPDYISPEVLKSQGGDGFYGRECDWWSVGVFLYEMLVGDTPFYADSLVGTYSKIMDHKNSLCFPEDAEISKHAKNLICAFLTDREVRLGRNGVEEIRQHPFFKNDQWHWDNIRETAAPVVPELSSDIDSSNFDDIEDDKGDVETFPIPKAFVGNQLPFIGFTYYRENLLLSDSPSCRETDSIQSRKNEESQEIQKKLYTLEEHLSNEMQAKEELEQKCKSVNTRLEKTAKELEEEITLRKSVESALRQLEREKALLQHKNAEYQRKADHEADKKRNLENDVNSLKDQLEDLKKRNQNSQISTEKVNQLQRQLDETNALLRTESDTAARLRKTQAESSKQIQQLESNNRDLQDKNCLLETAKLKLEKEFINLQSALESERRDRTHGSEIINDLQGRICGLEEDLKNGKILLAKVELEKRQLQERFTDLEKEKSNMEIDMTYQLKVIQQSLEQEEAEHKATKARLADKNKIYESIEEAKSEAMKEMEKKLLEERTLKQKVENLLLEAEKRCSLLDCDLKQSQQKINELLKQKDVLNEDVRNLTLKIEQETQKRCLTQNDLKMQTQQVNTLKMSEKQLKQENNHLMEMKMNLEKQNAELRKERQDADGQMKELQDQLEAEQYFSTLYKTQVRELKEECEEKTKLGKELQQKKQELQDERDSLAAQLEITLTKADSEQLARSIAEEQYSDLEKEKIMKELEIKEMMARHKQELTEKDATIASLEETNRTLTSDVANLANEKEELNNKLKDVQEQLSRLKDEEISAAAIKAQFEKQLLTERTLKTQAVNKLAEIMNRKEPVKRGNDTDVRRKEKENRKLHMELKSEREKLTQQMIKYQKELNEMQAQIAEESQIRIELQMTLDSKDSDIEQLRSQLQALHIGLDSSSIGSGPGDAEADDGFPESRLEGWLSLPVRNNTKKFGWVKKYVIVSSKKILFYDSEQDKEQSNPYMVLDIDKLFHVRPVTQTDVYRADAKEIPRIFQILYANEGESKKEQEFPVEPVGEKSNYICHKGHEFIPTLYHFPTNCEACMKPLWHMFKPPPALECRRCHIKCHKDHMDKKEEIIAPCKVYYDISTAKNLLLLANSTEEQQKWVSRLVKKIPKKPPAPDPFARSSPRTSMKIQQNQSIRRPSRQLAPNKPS
The pIC50 is the negative decadic logarithm of the IC50, by convention in mol/L. Low readings indicate a high IC50, high ones a low IC50. With `CC(N)c1ccc(C(=O)Nc2ccncc2)cc1NC(=O)c1cccc(Cl)c1` (stereo unspecified), the pIC50 was 6.30 to 7.30. Take `CC(N)c1ccc(C(=O)Nc2ccncc2)cc1OCCN` (stereo unspecified): the negative logarithm of the IC50 (pIC50) was 5.30 to 6.30. Under `CC(N)c1ccc(C(=O)Nc2ccncc2)cc1NC(=O)Nc1ccccc1` (stereo unspecified) stands 6.30 to 7.30; under `CC(N)c1ccc(C(=O)Nc2ccncc2)cc1NCc1ccco1` (stereo unspecified), 6.30 to 7.30; under `CC(N)c1ccc(C(=O)Nc2ccncc2)cc1-c1cccs1` (stereo unspecified), more than 7.30. In the case of `CC(N)c1ccc(C(=O)Nc2ccncc2)cc1-c1ccc2ccccc2c1` (stereo unspecified), the pIC50 was more than 7.30. `CC(N)c1ccc(C(=O)Nc2ccncc2)cc1O` (stereo unspecified) had a pIC50 of 5.30 to 6.30.

In the case of `COc1ccc(-c2cc(C(=O)Nc3ccncc3)ccc2C(C)N)cc1` (stereo unspecified), the pIC50 is 6.30 to 7.30. The same measure for `CC(N)c1ccc(C(=O)Nc2ccncc2)cc1NC(=O)c1ccco1` (stereo unspecified): 6.30 to 7.30. In turn, `C[C@H](N)c1ccc(C(=O)Nc2ccncc2)cc1-c1cccs1` gave a pIC50 of 6.30 to 7.30. As for `CC(N)c1ccc(C(=O)Nc2ccncc2)cc1N` (stereo unspecified), the negative logarithm of the IC50 (pIC50) is 5.30 to 6.30. For the compound `CC(N)c1ccc(C(=O)Nc2ccncc2)cc1NC(=O)c1ccc(Cl)cc1` (stereo unspecified), the pIC50 was 6.30 to 7.30.

For `CC(N)c1ccc(C(=O)Nc2ccncc2)cc1NC(=S)Nc1ccccc1` (stereo unspecified), the pIC50 is 6.30 to 7.30. Under `COc1cccc(C(=O)Nc2cc(C(=O)Nc3ccncc3)ccc2C(C)N)c1` (stereo unspecified) stands more than 7.30. `CC(N)c1ccc(C(=O)Nc2ccncc2)cc1NC(=O)c1ccccc1` (stereo unspecified) had a pIC50 of 6.30 to 7.30. Consider `C[C@@H](N)c1ccc(C(=O)Nc2ccncc2)cc1-c1cccs1`, for which the pIC50 was more than 7.30. `CC(N)c1ccc(C(=O)Nc2ccncc2)cc1-c1cccc(Cl)c1` (stereo unspecified) gave a pIC50 of more than 7.30. Turning to `CC(N)c1ccc(C(=O)Nc2ccncc2)cc1-c1ccc(F)cc1` (stereo unspecified), the pIC50 is more than 7.30.

As for `CC(N)c1ccc(C(=O)Nc2ccncc2)cc1[N+](=O)[O-]` (stereo unspecified), the negative-log IC50 (pIC50) was 6.30 to 7.30. As to `CC(N)c1ccc(C(=O)Nc2ccncc2)cc1-c1ccc(Cl)cc1` (stereo unspecified), the pIC50 is more than 7.30.

`CC(N)c1ccc(C(=O)Nc2ccncc2)cc1OCc1ccccc1` (stereo unspecified) showed a pIC50 of 6.30 to 7.30. Regarding `CC(N)c1ccc(C(=O)Nc2ccncc2)cc1-c1ccoc1` (stereo unspecified), the pIC50 is 6.30 to 7.30. `CC(N)c1ccc(C(=O)Nc2ccncc2)cc1OCCCN` (stereo unspecified) showed a pIC50 of 5.30 to 6.30. `COc1ccc(C(=O)Nc2cc(C(=O)Nc3ccncc3)ccc2C(C)N)cc1` (stereo unspecified) gave a pIC50 of more than 7.30.

`CC(N)c1ccc(C(=O)Nc2ccncc2)cc1OCCCO` (stereo unspecified): the pIC50 is 5.30 to 6.30. As to `CC(N)c1ccc(C(=O)Nc2ccncc2)cc1OCCO` (stereo unspecified), the pIC50 is 5.30 to 6.30.
